Laboratory results: ChEMBL document CHEMBL1201862, “PubChem BioAssay data set” (2004)
Activity calls are given as the source filed them.

What was measured:
Cytochrome P450 1A2 = target: T1, Cytochrome P450 1A2 (Homo sapiens, UniProt P05177);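 further: PubChem cytochrome P450 panel assay, CYP1A2 panel member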
T1 sequence (P05177 whole entry): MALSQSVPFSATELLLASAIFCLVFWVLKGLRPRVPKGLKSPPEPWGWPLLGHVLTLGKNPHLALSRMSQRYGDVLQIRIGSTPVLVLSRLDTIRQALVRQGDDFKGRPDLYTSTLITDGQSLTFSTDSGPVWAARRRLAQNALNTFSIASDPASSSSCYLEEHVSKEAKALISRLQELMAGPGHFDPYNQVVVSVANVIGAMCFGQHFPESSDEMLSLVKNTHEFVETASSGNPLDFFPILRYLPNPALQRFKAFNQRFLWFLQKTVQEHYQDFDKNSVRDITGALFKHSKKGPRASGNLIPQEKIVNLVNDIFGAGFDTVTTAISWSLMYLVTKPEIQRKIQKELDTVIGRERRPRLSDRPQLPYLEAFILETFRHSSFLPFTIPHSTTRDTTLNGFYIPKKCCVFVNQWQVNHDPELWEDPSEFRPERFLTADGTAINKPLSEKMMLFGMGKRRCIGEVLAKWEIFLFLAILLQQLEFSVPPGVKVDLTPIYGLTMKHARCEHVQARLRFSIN

Cytochrome P450 3A4 = Cytochrome P450 3A4 (Homo sapiens, UniProt P08684);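 further: CYP3A4 tested as one member of a cytochrome P450 panel screen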
[1] = growth suppression of PTEN-null colon cells, dose response, cell-based, HCT116 PTEN knockout (AID 1047); type: functional;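 further: HCT116 colon tumor cells with PTEN knocked out; cells exposed to compound for 60 hours before readout; potency for loss of cell viability measured by luminescence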
[2] = growth suppression of beta-catenin-knockout colon cells, dose response, cell-based, HCT116, human colon tumor (AID 1045); type: functional;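 further: HCT116 colon tumor cells with beta catenin knocked out; cells exposed to compound for 60 hours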
[3] = inhibitors of firefly luciferase expression or activity, dose response, H4 neuroglioma cells, luminescence (AID 1990); type: functional, cell-based
[4] = Luminescence Cell-Based Dose Response HTS to Identify Inhibitors of 5'UTR Stem-Loop Driven Prion Protein mRNA Translation in H4 Neuroglioblastoma Cells. [Related pubchem assays: 1827 (Project Summary), 1813 (Primary HTS)]; type: functional
[5] = inhibitors of SNCA 5'UTR-driven reporter translation, confirmation, H4 neuroglioma cells, luminescence (AID 1988); type: functional, cell-based
[6] = target: T2, Heat shock factor protein 1 (Mus musculus, UniProt P38532); experiment: inhibition of MG132-induced HSE-luciferase signal, confirmation, cell-based, NIH3T3, luminescence, dose retest (AID 2382); type: functional;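 further: NIH3T3 fibroblasts with HSF1-driven luciferase reporter stressed by proteasome inhibitor MG132; luminescence from HSF1-driven luciferase expression after 8 hours of MG132 stress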
T2 sequence (P38532 whole entry): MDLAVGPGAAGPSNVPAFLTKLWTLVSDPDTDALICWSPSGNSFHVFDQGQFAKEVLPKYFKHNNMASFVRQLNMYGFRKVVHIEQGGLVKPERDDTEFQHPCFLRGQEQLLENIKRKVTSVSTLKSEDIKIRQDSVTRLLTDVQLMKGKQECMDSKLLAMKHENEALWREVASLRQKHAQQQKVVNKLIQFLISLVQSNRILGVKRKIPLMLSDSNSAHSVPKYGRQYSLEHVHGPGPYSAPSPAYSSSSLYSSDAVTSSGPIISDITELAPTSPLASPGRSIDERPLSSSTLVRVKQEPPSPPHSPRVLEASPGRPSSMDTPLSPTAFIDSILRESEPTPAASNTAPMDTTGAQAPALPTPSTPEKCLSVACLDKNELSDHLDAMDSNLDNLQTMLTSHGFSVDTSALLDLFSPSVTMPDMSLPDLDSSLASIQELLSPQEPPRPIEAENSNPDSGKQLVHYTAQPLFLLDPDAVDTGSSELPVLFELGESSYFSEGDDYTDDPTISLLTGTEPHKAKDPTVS

[7] = target: T3, Polyadenylate-binding protein 1 (Homo sapiens, UniProt P11940); experiment: PABP1 MLLE–PAM2 interaction inhibitors, dose response, miRNA deadenylation inhibitor project, biochemical, fluorescence polarization, Cy5-PAM2 peptide, secondary (AID 602260); type: functional; settings: read-out: IC50_Mean
[8] = target: T3, Polyadenylate-binding protein 1; experiment: PABP1 MLLE–PAM2 binding inhibitor potency, dose response, biochemical, fluorescence polarization, FITC-PAM2 peptide (AID 602259); type: functional; settings: read-out: IC50_Mean
[9] = target: T4, Carboxy-terminal domain RNA polymerase II polypeptide A small phosphatase 1 (Homo sapiens, UniProt Q9GZU7); experiment: inhibitors of CTDSP1, concentration-response testing, biochemical assay, absorbance-based, actives from ultra-high-throughput screening (AID 540297); type: functional
T4 sequence (Q9GZU7 whole entry): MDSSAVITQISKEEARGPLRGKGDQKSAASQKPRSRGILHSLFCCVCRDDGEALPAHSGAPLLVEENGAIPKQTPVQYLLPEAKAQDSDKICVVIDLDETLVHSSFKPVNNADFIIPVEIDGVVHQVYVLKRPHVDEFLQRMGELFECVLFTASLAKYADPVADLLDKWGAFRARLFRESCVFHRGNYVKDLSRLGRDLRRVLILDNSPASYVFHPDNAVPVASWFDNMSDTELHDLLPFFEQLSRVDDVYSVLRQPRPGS

Cytochrome P450 2C9 = Cytochrome P450 2C9 (Homo sapiens, UniProt P11712)
Cytochrome P450 2D6 = Cytochrome P450 2D6 (Homo sapiens, UniProt P10635);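 further: CYP2D6 member of a cytochrome P450 panel assay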
[10] = Luminescence Cell-Based Dose Confirmation HTS to Identify Activators of 5'UTR Stem-Loop Driven Alpha-Synuclein mRNA Translation in H4 Neuroglioblastoma Cells. [Related pubchem assays: 1829 (Project Summary), 1814 (Primary HTS)]; type: functional
[11] = Luminescence Cell-Based Dose Response HTS to Identify Activators of Luciferase Translation or Activity in H4 […] Cells. [Related pubchem assays: 1829 (Project Summary), 1814 (Primary HTS)]; type: functional
H4 = experiment: Luminescence Cell-Based Dose Response HTS to Identify Activators of 5'UTR Stem-Loop Driven Prion Protein mRNA Translation in H4 Neuroglioblastoma Cells. [Related pubchem assays: 1829 (Project Summary), 1814 (Primary HTS)]; type: functional; settings: Homo sapiens
cells = type: functional

T3 sequence (P11940 whole entry): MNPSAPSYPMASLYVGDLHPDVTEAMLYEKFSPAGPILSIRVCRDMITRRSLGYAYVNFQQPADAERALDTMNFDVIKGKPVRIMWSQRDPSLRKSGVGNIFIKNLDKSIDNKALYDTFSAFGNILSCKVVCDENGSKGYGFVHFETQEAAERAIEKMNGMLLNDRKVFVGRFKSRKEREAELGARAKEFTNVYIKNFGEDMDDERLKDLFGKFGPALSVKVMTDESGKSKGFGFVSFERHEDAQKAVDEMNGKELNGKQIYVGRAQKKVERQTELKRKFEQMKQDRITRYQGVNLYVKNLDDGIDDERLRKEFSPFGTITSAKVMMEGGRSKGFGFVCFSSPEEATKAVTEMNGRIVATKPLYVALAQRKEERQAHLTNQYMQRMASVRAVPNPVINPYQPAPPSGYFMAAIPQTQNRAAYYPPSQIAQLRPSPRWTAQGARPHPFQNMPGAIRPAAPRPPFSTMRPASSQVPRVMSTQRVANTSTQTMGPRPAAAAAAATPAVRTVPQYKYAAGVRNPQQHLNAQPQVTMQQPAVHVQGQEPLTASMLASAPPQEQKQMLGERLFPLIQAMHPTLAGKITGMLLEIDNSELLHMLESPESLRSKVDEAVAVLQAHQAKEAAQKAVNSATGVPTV
Chain of Cytochrome P450 3A4 (P08684 whole entry): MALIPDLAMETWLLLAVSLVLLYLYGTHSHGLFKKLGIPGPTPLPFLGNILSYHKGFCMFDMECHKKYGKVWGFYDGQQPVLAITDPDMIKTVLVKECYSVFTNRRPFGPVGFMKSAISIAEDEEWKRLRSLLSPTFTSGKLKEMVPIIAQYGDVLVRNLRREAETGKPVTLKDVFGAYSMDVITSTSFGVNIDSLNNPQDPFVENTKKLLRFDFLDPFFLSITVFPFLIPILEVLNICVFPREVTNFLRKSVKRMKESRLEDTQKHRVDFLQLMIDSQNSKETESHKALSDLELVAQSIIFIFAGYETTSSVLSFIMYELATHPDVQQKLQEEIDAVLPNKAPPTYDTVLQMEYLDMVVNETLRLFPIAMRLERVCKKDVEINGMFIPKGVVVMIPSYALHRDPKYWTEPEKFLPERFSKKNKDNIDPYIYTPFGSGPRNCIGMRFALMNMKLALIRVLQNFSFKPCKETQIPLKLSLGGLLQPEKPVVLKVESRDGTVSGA
Chain of Cytochrome P450 2C9 (P11712 whole entry): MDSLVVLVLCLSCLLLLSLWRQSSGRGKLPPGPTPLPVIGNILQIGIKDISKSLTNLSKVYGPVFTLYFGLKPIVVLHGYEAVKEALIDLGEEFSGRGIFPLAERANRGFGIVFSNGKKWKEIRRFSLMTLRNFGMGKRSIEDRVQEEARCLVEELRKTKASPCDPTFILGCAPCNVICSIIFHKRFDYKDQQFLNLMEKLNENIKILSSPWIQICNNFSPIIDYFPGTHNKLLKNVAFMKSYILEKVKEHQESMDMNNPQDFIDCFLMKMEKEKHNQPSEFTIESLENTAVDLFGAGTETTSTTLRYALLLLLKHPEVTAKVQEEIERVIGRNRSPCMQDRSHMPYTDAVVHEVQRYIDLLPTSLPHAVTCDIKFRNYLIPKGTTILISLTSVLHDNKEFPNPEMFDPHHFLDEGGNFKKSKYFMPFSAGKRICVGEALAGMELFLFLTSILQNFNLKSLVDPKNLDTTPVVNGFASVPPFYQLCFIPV
Chain of Cytochrome P450 2D6 (P10635 whole entry): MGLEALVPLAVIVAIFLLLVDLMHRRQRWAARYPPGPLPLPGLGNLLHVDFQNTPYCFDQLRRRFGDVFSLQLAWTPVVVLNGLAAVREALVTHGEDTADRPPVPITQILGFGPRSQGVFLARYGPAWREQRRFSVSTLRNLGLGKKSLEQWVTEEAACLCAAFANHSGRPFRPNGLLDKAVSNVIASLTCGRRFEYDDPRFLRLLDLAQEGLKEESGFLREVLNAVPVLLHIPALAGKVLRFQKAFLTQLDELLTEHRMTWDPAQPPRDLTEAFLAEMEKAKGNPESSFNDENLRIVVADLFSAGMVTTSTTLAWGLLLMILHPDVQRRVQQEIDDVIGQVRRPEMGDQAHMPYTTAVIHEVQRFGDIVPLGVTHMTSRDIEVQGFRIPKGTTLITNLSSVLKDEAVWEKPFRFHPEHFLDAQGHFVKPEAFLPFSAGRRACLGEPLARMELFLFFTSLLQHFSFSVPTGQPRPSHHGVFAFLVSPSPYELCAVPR

For `O=C(c1cnccn1)N1CCC[C@@]2(CCN(C(c3ccccc3)c3ccccc3)C2)C1`, the AC50 (Cytochrome P450 1A2) was 15.8 µM (inconclusive) and the AC50 (Cytochrome P450 3A4) was 2.51 µM (inconclusive).
In the case of `C#CCN1C(=O)C(O)(CC(=O)c2cccc(OC)c2)c2ccccc21` (stereo not drawn), the EC50 [1] is reported as 19.2 µM (active) and the EC50 [2] is reported as 19.3 µM (active).
For `CCOc1ccc2nc(Cl)c(C3CC(c4ccccc4)=NN3C(=O)c3cccs3)cc2c1` (stereo not drawn), the EC50 [1] was 4.07 µM (active) and the EC50 [2] was 3.9 µM (active).
With `O=C(/C=C/c1cccc(OCc2ccccc2)c1)c1cccnc1` the EC50 [1] was 5.59 µM (active) and the EC50 [2] was 3.79 µM (active).
In the case of `Cc1ccc(NC(=O)C2C3CCCC2C3c2ccccc2)c(C)c1` (stereo not drawn), the EC50 [3] is reported as > 120 µM (not active), the EC50 [4] is reported as > 120 µM (not active) and the EC50 [5] is reported as > 120 µM (not active).
In the case of `S=C(c1ccc(N2CCOCC2)cc1)N1CCOCC1`, the EC50 [6] is reported as > 195 µM (not active), the IC50 [7] is reported as > 66 µM (inactive) and the IC50 [8] is reported as > 66 µM (inactive).
For `O=C1C=C(O)c2cccc(O)c2C1=O`, the IC50 [9] was 44.5 µM (active).
For `CC1CC(C)CN(C(=O)CNS(=O)(=O)c2ccc(Br)s2)C1` (stereo not drawn), the AC50 (Cytochrome P450 1A2) was 15.8 µM (inconclusive), the AC50 (Cytochrome P450 3A4) was 11.2 µM (inconclusive) and the AC50 (Cytochrome P450 2C9) was 10 µM (inconclusive).
With `Cc1cc(Cn2cnc3c2C[C@@H](C(=O)O)N(C(=O)C(c2ccccc2)c2ccccc2)C3)ccc1N(C)C` the AC50 (Cytochrome P450 2D6) was 39.8 µM (inconclusive) and the AC50 (Cytochrome P450 1A2) was 25.1 µM (inconclusive).
In the case of `O=c1c(-c2ccccc2)nc2cnc(N3CCOCC3)nc2n1CCc1ccccc1`, the AC50 (Cytochrome P450 1A2) is reported as 12.6 µM (inconclusive) and the AC50 (Cytochrome P450 3A4) is reported as 31.6 µM (inconclusive).
With `COc1ccc(N/N=C2/CCCCC2=O)cc1` the IC50 [7] was > 66 µM (inactive) and the IC50 [8] was > 66 µM (inactive).
For `CCOC(=O)c1cnn(-c2ccc(C(C)C)cc2)c1NC(=O)C1CCC1`, the EC50 [10] was 13.4 µM (active), the EC50 [11] was 18.9 µM (active) and the EC50 (H4) was > 120 µM (not active). For the same compound, the AC50 (Cytochrome P450 2D6) was 8.91 µM (inconclusive), the AC50 (Cytochrome P450 1A2) was 14.1 µM (inconclusive) and the AC50 (Cytochrome P450 3A4) was 39.8 µM (inconclusive). The AC50 (Cytochrome P450 2C9) was 39.8 µM (inconclusive).
In the case of `O=C(CSc1nc2ccccc2[nH]1)NC1CCCC1`, the IC50 [9] is reported as 6.85 µM (active).
For `Cc1nn(C(C)(C)C)c(OC(=O)c2ccco2)c1Sc1ccccc1`, the AC50 (Cytochrome P450 1A2) was 14.1 µM (inconclusive) and the AC50 (Cytochrome P450 3A4) was 39.8 µM (inconclusive).
For `CCCOC(=O)c1ccc(NC(=O)c2ccccc2OC)cc1`, the IC50 (cells) was 11.3 µM (active).
For `COc1ccccc1/C=N/N=C(/Nc1ccc(C)cc1)c1nc2ccccc2s1`, the AC50 (Cytochrome P450 1A2) was 14.1 µM (inconclusive), the AC50 (Cytochrome P450 3A4) was 17.8 µM (inconclusive) and the AC50 (Cytochrome P450 2C9) was 17.8 µM (inconclusive).
For `O=C(Nc1ccccc1F)c1cc(-c2ccco2)nc2ccccc12`, the IC50 [9] was 8.25 µM (active).
With `CCOC(=O)c1cc(COc2cc(Cl)cc(Cl)c2)on1` the IC50 (cells) was 1.97 µM (active).
In the case of `O=C(CSc1ncccc1-c1nc2ccccc2[nH]1)NCc1ccco1`, the IC50 [9] is reported as 10.3 µM (active).
In the case of `O=C(O)CNC(=O)c1ccccc1O` [SALICYLURIC ACID], the AC50 (Cytochrome P450 1A2) is reported as 5.01 µM (inconclusive).
In the case of `O=C(Cc1ccc(Cl)cc1)OCC(=O)c1ccc[nH]1`, the IC50 (cells) is reported as 18.8 µM (active).
